Data from patent US11891667B2, “IGF2BP3 functional alterations and overexpression as a marker for cancer diagnosis and therapeutic response to IGF1R inhibitors” (UNIVERSITY OF PITTSBURGH-OF THE COMMONWEALTH SYSTEM OF …, priority 2016, dated 2024).

How the values were obtained:
[1] = system: PaCa-2 cells; assay: Soft agar colony formation of PaCa-2 cells; type: cell-based, human
Protocol: Finally, the impact of IGF2BP3 overexpression on cell transformation was investigated.
(§1) The effects of IGF1R inhibition on the growth of cancer cells driven by IGF2PB3 overexpression were then tested. First, studies were conducted to determine if activation of the AKT and MAPK pathways and cell growth induced by IGF2BP3 overexpression is affected by inhibiting IGF1R by OSI-906 in vitro. […] The experiments were repeated in quadruplicate and were calculated as percentage of viable cells after treatment with OSI-906 (mean±SD). […] Again, the assay was performed in quadruplicate and shown as mean±SD.

[2] = system: IGF1R; assay: Western blotting of IGF1R phosphorylation and downstream signaling in HEK293 cells overexpressing IGF2BP3; type: cell-based; conditions: FIG. 5A
Protocol: as §1

[3] = system: PaCa-2 cancer cells; assay: Cell growth/proliferation of PaCa-2 cancer cells (high IGF2BP3); type: cell-based, human
Protocol: as §1

[4] = system: U2OS cells; assay: Cell growth/proliferation of U2OS cells (low IGF2BP3); type: cell-based
Protocol: as §1

[5] = system: FTC133 cells with induced IGF2BP3 expression; assay: Cell growth of FTC133 cells transiently transfected with IGF2BP3; type: cell-based, human; conditions: FTC133, IGF2BP3 induced by transient transfection, FIG. 5C
Protocol: as §1

[6] = system: U2OS cells with induced IGF2BP3 expression; assay: Cell growth of U2OS cells transiently transfected with IGF2BP3; type: cell-based; conditions: IGF2BP3 induced by transient transfection, FIG. 5C
Protocol: as §1

[7] = system: FTC133 thyroid cancer cell tumors; assay: FTC133 xenograft in nude mice; type: in vivo; conditions: FIG. 5G; for tumor growth: FTC133 subcutaneous xenograft, nude mice, therapeutic doses
Protocol: (§2) Next, tumor cells overexpressing IGF2BP3 were tested to see if their growth can be blocked via IGF1R inhibition in vivo using a xenograft experimental model. Pancreatic cancer cells PaCa-2 and colon cancer cells Caco-2, both expressing IGF2PB3 at high level (FIG. 5B), and thyroid cancer cells FTC133 with low levels of IGF2BP3 expression were employed to establish tumors growing in nude mice at sites of subcutaneous cell injection.

[8] = system: solid tumors; conditions: cited from earlier work
[9] = system: FTC133 cells; assay: Cell growth/proliferation of FTC133 cells (low IGF2BP3); type: cell-based, human
Protocol: as §1

[10] = system: PaCa-2 pancreatic cancer cell tumors; assay: PaCa-2 xenograft in nude mice; type: in vivo; conditions: FIG. 5F; for tumor growth: PaCa-2 subcutaneous xenograft, nude mice, therapeutic doses
Protocol: as §2

[11] = system: Caco-2 colon cancer cell tumors; assay: Caco-2 xenograft in nude mice; type: in vivo; conditions: FIG. 5F; for tumor growth: Caco-2 subcutaneous xenograft, nude mice, therapeutic doses
Protocol: as §2

In the case of `C[C@]1(O)C[C@@H](c2nc(-c3ccc4ccc(-c5ccccc5)nc4c3)c3c(N)nccn32)C1` [OSI-906, linsitinib], the “colony formation in soft agar” value [1] is reported as “significant reduction of colony formation”, the “IGF1R phosphorylation and downstream signaling induced by IGF2BP3” value ([2]; 5 μM, 30 minutes) is reported as “inhibition of IGF1R phosphorylation and downstream signaling” and the “phosphorylation of AKT, S6, and ERK induced by IGF2BP3 overexpression” value ([2]; Western blotting) is reported as “blocked phosphorylation of AKT, S6, and ERK”. For the same compound, the cell growth ([3]; PaCa-2, strongly overexpress IGF2BP3, FIG. 5B) was “dose-dependent growth inhibition”, the “proliferation (percentage of viable cells)” value ([3]; PaCa-2, treatment for 72 hours, FIG. 5B bottom panel) was “inhibition of proliferation” and the cell growth ([4]; low IGF2BP3 expression, FIG. 5B) was “did not have any effects”. For the same compound, the “proliferation (percentage of viable cells)” value ([4]; treatment for 72 hours, FIG. 5B bottom panel) was “no effect on proliferation”, the cell growth [5] was “acquired sensitivity to growth inhibition” and the cell growth [6] was “acquired sensitivity to growth inhibition”. For the same compound, the tumor growth [7] was “had no effect on the growth”, the tumor growth ([7]; listed as linsitinib) was “not impacted” and the “phosphorylated IGF1R, AKT, S6, and ERK in the tumor tissue” value (“phosphorylated IGF1R, AKT, S6, and ERK” for short) ([7]; FTC133 xenograft tumor tissue) was “did not show reduction in the phosphorylation”. For the same compound, the “proportion of patients with clinical response” value ([8]; clinical trials, patients with solid tumors) was 1-5%, the “efficacy in patients in clinical trials” value ([8]; clinical trials) was “ineffective in the vast majority of patients” and the “tumor responsiveness in clinical trials” value ([8]; colorectal cancer, non-small cell lung cancer, sarcoma, and other cancer types) was “only low levels of tumor responsiveness were observed”. The cell growth ([9]; FTC133, low IGF2BP3 expression, FIG. 5B) was “did not have any effects”, the “proliferation (percentage of viable cells)” value ([9]; FTC133, treatment for 72 hours, FIG. 5B bottom panel) was “no effect on proliferation” and the tumor growth [10] was “arrested growth of tumors”. The tumor growth ([10]; listed as linsitinib) was “particularly inhibited”, the “phosphorylated IGF1R, AKT, S6, and ERK” value ([10]; PaCa-2 xenograft tumor tissue) was “reduction of phosphorylated IGF1R, AKT, S6, and ERK” and the tumor growth [11] was “arrested growth of tumors”. The tumor growth ([11]; listed as linsitinib) was “particularly inhibited” and the “phosphorylated IGF1R, AKT, S6, and ERK” value ([11]; Caco-2 xenograft tumor tissue) was “reduction of phosphorylated IGF1R, AKT, S6, and ERK”.
